Reference: PMC5603535, “A network integration approach for drug-target interaction prediction and computational drug repositioning from heterogeneous information” (Nature Communications, 2017)
Several values for one entry are separate records, joined by “and”; a condition that tells them apart may be missing. Identical values can stand only once. Entries after “also recorded” stand apart in the source; their conditions may differ.

Columns and labels:
recombinant human COX-1 = recombinant human COX-1 (Homo sapiens, UniProt P23219); experiment: Human recombinant enzyme assay (PGE2 by ELISA): COX-1; type: biochemical; conditions: PGE2 levels, 10 μM arachidonic acid
Protocol: (§1) Next, the tissue extracts from the mouse kidney and the peritoneal macrophages were used for COX selective inhibition assays. […] To further evaluate the selectivity of these predicted drugs on COX-1 and COX-2, we also used the human recombinant enzyme assays to measure the levels of PGE 2 under COX-1 and COX-2 catalyzes, respectively.
(§2) Then the 10 μM arachidonic acid was added to start the reaction and allowed the process to proceed for 10 min. The reaction was terminated by diluting the reaction into buffer containing 25 μM indomethacin. The final levels of PGE 2 were measured by ELISA.

COX = COX fluorescent activity assay on mouse kidney lysates; type: biochemical
Protocol: We further sought to experimentally validate the bioactivities of the COX inhibitors predicted by DTINet (Methods). First, we tested their inhibitory potencies on the mouse kidney lysates using the COX fluorescent activity assays.
(§3) Following stimulation, kidneys were harvested from mice, and macrophages from the above treatment were homogenized in 5 ml of cold phosphate-buffered saline (PBS) containing protease inhibitors and centrifuged at 10,000×g for 15 min at 4 °C. The supernatant was assayed by the COX fluorescent activity assay kit according to the manufacturer’s instructions.

COX-2 [1] = target: T1, COX-2 (Homo sapiens, UniProt P35354); conditions: compounds at their IC50 concentrations, 2 h
T1 sequence (P35354 18-604): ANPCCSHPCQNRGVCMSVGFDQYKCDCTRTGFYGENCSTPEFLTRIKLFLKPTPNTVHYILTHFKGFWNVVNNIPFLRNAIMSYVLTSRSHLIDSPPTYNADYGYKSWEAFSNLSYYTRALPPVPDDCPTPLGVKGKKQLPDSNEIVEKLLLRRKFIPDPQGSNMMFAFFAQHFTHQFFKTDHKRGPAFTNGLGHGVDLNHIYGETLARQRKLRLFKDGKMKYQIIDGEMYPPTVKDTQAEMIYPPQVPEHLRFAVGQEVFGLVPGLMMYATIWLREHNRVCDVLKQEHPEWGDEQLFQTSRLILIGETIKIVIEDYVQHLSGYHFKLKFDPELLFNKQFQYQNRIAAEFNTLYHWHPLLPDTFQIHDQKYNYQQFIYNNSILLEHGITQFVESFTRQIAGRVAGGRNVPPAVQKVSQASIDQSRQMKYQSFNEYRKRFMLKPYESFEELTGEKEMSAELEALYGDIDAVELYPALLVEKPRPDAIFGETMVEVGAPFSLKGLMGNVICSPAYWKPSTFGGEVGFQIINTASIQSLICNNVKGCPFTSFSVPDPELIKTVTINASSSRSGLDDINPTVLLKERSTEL

COX-2 [2] = target: T2, COX-2 (Mus musculus, UniProt Q05769); experiment: COX selective inhibition assay on tissue extracts (COX fluorescent activity, distinguished with SC-560/Dup-697): COX-2; type: biochemical; conditions: mouse peritoneal macrophage lysates
T2 construct: the tissue extracts from the mouse kidney and the peritoneal macrophages; from tissue; host or cells: mouse kidney and thioglycollate-elicited peritoneal macrophages (C57BL/6J), homogenate supernatant
T2 sequence (Q05769 18-604): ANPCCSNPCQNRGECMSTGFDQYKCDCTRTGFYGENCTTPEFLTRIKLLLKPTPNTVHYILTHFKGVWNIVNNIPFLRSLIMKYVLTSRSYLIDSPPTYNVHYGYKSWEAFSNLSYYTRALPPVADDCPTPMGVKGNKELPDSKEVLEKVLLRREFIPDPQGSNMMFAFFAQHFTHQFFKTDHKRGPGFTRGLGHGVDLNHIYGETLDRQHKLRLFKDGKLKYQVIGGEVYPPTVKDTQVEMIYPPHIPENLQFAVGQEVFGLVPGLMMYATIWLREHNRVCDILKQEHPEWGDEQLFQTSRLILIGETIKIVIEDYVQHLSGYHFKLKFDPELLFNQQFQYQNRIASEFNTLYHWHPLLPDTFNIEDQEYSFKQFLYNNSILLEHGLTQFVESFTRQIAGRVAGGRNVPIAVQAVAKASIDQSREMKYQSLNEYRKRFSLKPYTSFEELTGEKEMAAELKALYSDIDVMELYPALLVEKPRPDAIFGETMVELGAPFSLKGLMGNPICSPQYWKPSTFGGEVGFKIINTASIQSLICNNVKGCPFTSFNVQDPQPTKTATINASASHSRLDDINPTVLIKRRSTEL
Protocol: as §1
(§4) Peritoneal macrophages were isolated from peritoneum by lavage using 20 ml Dulbecco's modified Eagle’s medium (DMEM) and seeded into six-well plates using […] in DMEM of 10% fetal bovine serum (FBS). Non-adherent cells were removed 6 h later, whereas adherent cells were refed with DMEM of 10% FBS and allowed to recover overnight. […] Cells were harvested for subsequent analysis.
as §3

COX-2 [3] = target: T1, COX-2; experiment: Human recombinant enzyme assay (PGE2 by ELISA): COX-2; type: biochemical; conditions: PGE2 levels, 10 μM arachidonic acid
Protocol: as §1, §2

COX-1 [4] = target: T3, COX-1 (Mus musculus, UniProt P22437); experiment: COX selective inhibition assay on tissue extracts (COX fluorescent activity, distinguished with SC-560/Dup-697): COX-1; type: biochemical; conditions: mouse peritoneal macrophage lysates
T3 construct: the tissue extracts from the mouse kidney and the peritoneal macrophages; from tissue; host or cells: mouse kidney and thioglycollate-elicited peritoneal macrophages (C57BL/6J), homogenate supernatant
T3 sequence (P22437 27-602): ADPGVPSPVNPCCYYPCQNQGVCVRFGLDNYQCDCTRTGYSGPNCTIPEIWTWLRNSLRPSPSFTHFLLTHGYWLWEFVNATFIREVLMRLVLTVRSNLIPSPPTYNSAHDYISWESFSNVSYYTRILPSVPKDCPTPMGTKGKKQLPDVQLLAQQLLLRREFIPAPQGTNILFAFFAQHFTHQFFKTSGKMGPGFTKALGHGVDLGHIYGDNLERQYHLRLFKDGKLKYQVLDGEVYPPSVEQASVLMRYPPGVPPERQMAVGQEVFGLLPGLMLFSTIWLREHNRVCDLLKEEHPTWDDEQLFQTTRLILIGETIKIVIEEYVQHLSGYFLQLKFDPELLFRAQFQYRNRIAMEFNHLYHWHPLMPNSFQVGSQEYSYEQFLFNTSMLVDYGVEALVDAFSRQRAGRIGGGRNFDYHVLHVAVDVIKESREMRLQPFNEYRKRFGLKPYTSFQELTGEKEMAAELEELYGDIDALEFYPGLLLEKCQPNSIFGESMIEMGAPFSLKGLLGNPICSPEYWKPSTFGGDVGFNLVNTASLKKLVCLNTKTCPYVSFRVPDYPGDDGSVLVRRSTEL
Protocol: as §1, §4, §3

[5] = test system: LPS-stimulated peritoneal macrophages; experiment: RT-PCR of proinflammatory factors in LPS-stimulated peritoneal macrophages; type: cell-based, mouse; conditions: LPS 10 ng/ml
Protocol: Lipopolysaccharide (LPS) was used to stimulate the cultured peritoneal macrophages for the cellular inflammation model.
as §4
Total RNA was extracted from the whole-cell lysates using the Trnzol-A^+ reagent (Tiangen, Cat. no. DP421, China). Reverse transcription was performed using TIANScript RT Kit (Tiangen, Cat. no. KR104-02, China). All real-time PCR reactions were carried out on ABI ViiA 7 Real-Time System (Life Technologies, USA) using TransStart Top Green qPCR SuperMix (Transgen, Cat. no. AQ131-03, China). The formula 2^−ΔΔCt was used to calculate the relative expression. The expression of the housekeeping gene GAPDH was used as an internal control.

alpha2-containing GlyRs = test system: alpha2-containing GlyRs; parameters: method as in Thio et al., 2003; conditions: embryonic mouse hippocampal neurons, low-affinity binding manner, ref Thio et al., 2003; cited from earlier work
[6] = test system: GABA A-subtype (GABA-A) receptors; parameters: method as in ref 28 (Wassef et al., 2003); conditions: previous studies, ref 28 (Wassef et al., 2003); cited from earlier work
[7] = test system: GABA B-subtype (GABA-B) receptors; parameters: method as in ref 27 (Wu et al., 2011); conditions: previous studies, ref 27 (Wu et al., 2011); cited from earlier work
GlyRs = test system: GlyRs; parameters: method as in Liu et al., 2009; conditions: rat hippocampal neurons, ref Liu et al., 2009; cited from earlier work
COX-1 [8] = conditions: read-out: IC50 COX-1; common NSAIDs; cited from earlier work
COX-2 [9] = conditions: cited from earlier work

Sequence of recombinant human COX-1 (P23219 24-599): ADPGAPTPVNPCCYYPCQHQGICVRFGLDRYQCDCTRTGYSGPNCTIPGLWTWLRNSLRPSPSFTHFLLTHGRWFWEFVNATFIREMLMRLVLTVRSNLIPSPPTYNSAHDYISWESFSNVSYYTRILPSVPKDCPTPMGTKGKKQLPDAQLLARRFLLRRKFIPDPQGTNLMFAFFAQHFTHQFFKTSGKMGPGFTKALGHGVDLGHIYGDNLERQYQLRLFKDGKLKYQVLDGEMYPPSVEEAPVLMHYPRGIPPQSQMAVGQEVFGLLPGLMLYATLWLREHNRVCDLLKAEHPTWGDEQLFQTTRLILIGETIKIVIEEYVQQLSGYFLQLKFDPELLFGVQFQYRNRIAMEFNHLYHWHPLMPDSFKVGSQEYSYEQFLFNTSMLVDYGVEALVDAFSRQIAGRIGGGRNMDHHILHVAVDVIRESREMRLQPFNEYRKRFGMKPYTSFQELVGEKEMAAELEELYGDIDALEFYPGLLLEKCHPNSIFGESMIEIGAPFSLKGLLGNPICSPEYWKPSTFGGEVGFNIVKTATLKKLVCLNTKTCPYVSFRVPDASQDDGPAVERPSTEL

SMILES | IC50 (COX) | inhibition of the binding of [3H] celecoxib to COX-2 (COX-2 [1]) | Relative COX activity inhibition (%) COX-2 (COX-2 [2]) [%] | IC50 (COX-2 [3]) [µM] | Relative COX activity inhibition (%) COX-1 (COX-1 [4]) [%] | also measured
CCCNC(=O)NS(=O)(=O)c1ccc(Cl)cc1 [Chlorpropamide] | 290 µM and ~300 µM | ~14.00% | 63 | 152 | 37 | IC50 (recombinant human COX-1): 224 µM
CCCc1nc2c(C)cc(-c3nc4ccccc4n3C)cc2n1Cc1ccc(-c2ccccc2C(=O)O)cc1 [Telmisartan] | 56.1 µM | about 48.33% | 37 | 91.8 | 63 | IC50 (recombinant human COX-1): 42 µM; IL-12p35 production induced by LPS (mRNA, RT-PCR) [5]: significantly inhibited; also recorded: much stronger suppression effect; LPS induced expression of IL-6 (mRNA, RT-PCR) [5]: strong inhibitory effect; LPS induced expression of TNF-α (mRNA, RT-PCR) [5]: strong inhibitory effect; induction of IL-1β (mRNA, RT-PCR) [5]: strongest suppression effect
O=C1CN=C(c2ccccc2)c2cc([N+](=O)[O-])ccc2N1 [Nitrazepam] | – | – | – | – | – | effect on alpha2-containing GlyRs (alpha2-containing GlyRs): block
CN1CCN(C2=Nc3cc(Cl)ccc3Nc3ccccc32)CC1 [Clozapine] | – | – | – | – | – | effect on GABA-A receptors in the cortex [6]: antagonize; interaction with GABA-B receptors [7]: direct interaction; effect on GlyRs (GlyRs): non-competitive antagonist
CNC1=Nc2ccc(Cl)cc2C(c2ccccc2)=[N+]([O-])C1 [Chlordiazepoxide] | – | – | – | – | – | effect on alpha2-containing GlyRs (alpha2-containing GlyRs): block
NCCCC(O)(P(=O)(O)O)P(=O)(O)O [Alendronate] | 160 µM | ~40.67% | 43 | 184 | 57 | IL-12p35 production induced by LPS (mRNA, RT-PCR) [5]: significantly inhibited
CS(=O)(=O)c1ccc(C2=C(c3ccccc3)C(=O)OC2)cc1 [rofecoxib] | – | – | – | – | – | IC50 (COX-2 [9]): 25 µM; IC50 (COX-1 [8]): […]
